Measured values published in US10077261B2, “Imidazolin-5-one derivative useful as FASN inhibitors for the treatment of cancer” (Janssen Pharmaceutica NV, priority 2012, dated 2018).

What was measured:
A2780 ovarian cells [1] = assay: A2780 ovarian cell proliferation assay in lipid reduced medium, without palmitate (MTT); format: cell-based; details: Homo sapiens, A2780, 96 h; read-out: pIC50 A2780 Ovarian Cell, Without Palmitate (converted)
[2] = target: T1, hFASN enzyme (full length) (Homo sapiens, UniProt P49327); assay: Fatty Acid Synthase (FASN) inhibition scintillation proximity assay; format: biochemical; details: for inhibition at 10 µM: read-out: Human FASN % inhibition @ 10 μM, 10 μM test compound; for IC50: read-out: Human FASN pIC50 (converted)
T1 construct: 10 μL hFASN enzyme (full length, 300 ng, purified in house); made in house
In short: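 Purified full-length hFASN (300 ng) converts ^3H-acetyl-CoA plus malonyl-CoA to ^3H-palmitate in 100 mM KH2PO4 pH 7.5, 1 mM DTT; compounds tested at 0.01–30 μM. Product captured on streptavidin imaging beads and read by LEADseeker at 610 nm after ≥24 h; 4-parameter logistic fit versus controls.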

A2780 ovarian cells [3] = assay: A2780 ovarian cell proliferation assay in lipid reduced medium, with palmitate (MTT); format: cell-based; details: Homo sapiens, A2780, 96 h; read-out: pIC50 A2780 Ovarian Cell, With Palmitate (converted)
In short: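 Seeded cells were switched next day to lipid-reduced serum, exposed to compound and 25 μM palmitate complexed with fatty-acid-free BSA, and incubated 96 h. Proliferation was then determined by MTT absorbance at 544 nm, with a best-fit curve of signal against concentration.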

T1 sequence (P49327 whole entry): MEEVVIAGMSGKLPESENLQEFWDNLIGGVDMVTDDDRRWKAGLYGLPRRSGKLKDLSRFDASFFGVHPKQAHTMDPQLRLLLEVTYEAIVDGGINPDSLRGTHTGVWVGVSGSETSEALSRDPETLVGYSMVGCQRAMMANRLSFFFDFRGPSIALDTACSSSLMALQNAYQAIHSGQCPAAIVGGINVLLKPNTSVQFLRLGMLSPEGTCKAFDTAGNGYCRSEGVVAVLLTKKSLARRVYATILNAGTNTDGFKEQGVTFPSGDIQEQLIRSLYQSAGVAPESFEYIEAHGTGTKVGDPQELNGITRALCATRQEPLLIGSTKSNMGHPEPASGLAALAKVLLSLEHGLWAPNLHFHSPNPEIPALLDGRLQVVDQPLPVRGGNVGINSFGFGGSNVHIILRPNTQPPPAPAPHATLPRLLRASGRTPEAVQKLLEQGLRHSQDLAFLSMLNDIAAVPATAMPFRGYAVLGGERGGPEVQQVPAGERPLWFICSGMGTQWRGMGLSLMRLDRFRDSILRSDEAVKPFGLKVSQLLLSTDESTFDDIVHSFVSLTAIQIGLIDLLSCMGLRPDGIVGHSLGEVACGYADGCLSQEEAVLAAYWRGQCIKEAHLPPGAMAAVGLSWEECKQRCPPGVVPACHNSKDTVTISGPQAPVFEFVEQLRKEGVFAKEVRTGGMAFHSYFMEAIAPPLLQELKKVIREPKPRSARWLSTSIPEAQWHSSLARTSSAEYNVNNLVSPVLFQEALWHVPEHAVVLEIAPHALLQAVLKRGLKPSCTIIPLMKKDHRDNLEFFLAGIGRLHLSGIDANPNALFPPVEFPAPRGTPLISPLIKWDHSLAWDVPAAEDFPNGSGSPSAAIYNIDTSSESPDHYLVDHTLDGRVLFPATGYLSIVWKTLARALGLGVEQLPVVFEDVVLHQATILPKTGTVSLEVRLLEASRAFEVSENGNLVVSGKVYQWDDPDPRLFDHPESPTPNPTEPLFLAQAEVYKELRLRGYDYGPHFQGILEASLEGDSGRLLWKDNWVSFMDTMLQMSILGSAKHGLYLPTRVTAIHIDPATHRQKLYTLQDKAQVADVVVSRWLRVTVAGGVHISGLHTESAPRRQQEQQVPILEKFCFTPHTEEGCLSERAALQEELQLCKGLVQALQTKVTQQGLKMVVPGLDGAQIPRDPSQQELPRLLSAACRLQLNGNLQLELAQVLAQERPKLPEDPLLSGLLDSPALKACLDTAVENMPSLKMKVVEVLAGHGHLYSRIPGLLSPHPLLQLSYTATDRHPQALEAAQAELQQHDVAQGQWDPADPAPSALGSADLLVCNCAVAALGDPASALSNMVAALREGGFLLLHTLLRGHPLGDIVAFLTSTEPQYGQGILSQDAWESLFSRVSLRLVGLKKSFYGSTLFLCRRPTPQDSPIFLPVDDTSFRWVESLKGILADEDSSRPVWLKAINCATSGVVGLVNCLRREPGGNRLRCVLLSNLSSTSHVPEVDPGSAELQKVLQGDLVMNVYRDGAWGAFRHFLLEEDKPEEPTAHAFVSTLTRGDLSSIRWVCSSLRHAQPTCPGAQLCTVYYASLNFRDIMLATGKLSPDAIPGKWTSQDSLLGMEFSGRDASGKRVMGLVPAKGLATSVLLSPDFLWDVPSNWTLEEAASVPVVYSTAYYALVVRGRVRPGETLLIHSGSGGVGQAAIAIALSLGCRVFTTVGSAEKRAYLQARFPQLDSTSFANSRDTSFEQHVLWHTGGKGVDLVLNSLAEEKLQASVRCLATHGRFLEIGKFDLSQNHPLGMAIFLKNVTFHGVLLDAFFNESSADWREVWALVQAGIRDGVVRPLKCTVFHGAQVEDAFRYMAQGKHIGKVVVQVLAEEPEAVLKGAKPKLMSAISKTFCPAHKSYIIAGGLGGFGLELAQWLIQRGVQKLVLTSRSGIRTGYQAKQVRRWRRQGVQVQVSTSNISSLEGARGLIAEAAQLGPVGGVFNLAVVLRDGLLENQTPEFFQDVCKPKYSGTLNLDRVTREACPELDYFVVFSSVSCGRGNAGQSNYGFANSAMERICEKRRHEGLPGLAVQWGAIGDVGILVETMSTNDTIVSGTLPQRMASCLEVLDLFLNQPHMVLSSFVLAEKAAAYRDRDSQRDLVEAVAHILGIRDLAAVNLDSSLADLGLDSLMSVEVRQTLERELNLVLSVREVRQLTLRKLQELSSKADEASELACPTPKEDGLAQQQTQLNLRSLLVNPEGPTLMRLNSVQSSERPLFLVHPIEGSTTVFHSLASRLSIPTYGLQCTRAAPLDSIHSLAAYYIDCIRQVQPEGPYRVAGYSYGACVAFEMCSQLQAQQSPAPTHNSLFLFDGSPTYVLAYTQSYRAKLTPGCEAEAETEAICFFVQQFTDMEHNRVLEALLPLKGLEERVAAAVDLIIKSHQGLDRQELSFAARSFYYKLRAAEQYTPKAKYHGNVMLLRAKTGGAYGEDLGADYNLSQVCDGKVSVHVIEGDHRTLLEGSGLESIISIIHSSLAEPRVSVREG

Structure (SMILES)	IC50 (A2780 ovarian cells [1])	inhibition at 10 µM [2]	IC50 [2]	IC50 (A2780 ovarian cells [3])
O=C(C1CC1)N1CC(CN2C(=O)C3(CC3)N=C2c2ccc(-c3cc4cn(CCO)nc4cc3F)cc2)C1 [compound 553, 6-{[1-(Cyclopropylcarbonyl)azetidin-3-yl]methyl}-5-{4-[6-fluoro-2-(2-hydroxyethyl)-2H-indazol-5-yl]phenyl}-4,6-diazaspiro[2.4]hept-4-en-7-one]	2.75 µM	85%	1.35 µM	> 10 µM
Cc1cc(-c2cccc(NC(=O)C3CC3)c2)ccc1C1=NC2(CC2)C(=O)N1CC1CN(C(=O)C2CC2)C1 [compound 571, N-[4′-(6-{[1-(Cyclopropylcarbonyl)azetidin-3-yl}methyl]-7-oxo-4,6-diazaspiro[2.4]hept-4-en-5-yl)-3′-methylbiphenyl-3-yl]cyclopropanecarboxamide]	0.977 µM	79%	1.38 µM	> 10 µM
O=C(C1CC1)N1CC(CN2C(=O)C3(CC3)N=C2c2ccc(-c3ccc4c(cnn4C4COC4)c3)cc2F)C1 [compound 789, 6-((1-(cyclopropanecarbonyl)azetidin-3-yl)methyl)-5-(2-fluoro-4-(1-(oxetan-3-yl)-1H-indazol-5-yl)phenyl)-4,6-diazaspiro[2.4]hept-4-en-7-one]	> 10 µM	26%	> 10 µM	> 10 µM
Cn1c(-c2ccc(C3=NC4(CC4)C(=O)N3CC3CN(C(=O)C4CC4)C3)c(F)c2)nc2ccccc21 [compound 648, 6-{[1-(Cyclopropylcarbonyl)azetidin-3-yl]methyl}-5-[2-fluoro-4-(1-methyl-1H-benzimidazol-2-yl)phenyl]-4,6-diazaspiro[2.4]hept-4-en-7-one]	2.51 µM	74%	2.57 µM	> 10 µM
O=C(C1CC1)N1CC[C@@H](CN2C(=O)C3(CC3)N=C2c2ccc(-c3cccc(C(F)(F)F)c3)cc2)C1 [compound 126, 6-{[(3R)-1-(Cyclopropylcarbonyl)pyrrolidin-3-yl]methyl}-5-[3′-(trifluoromethyl)biphenyl-4-yl]-4,6-diazaspiro[2.4]hept-4-en-7-one]	> 10 µM	96.3%	0.646 µM	> 10 µM
Cc1cc(-c2cccc(S(=O)(=O)C3CC3)c2)ccc1C1=NC2(CC2)C(=O)N1C[C@@H]1CCN(C(=O)C2CC2)C1 [compound 646, 6-{[(3R)-1-(Cyclopropylcarbonyl)pyrrolidin-3-yl]methyl}-5-[3′-(cyclopropylsulfonyl)-3-methylbiphenyl-4-yl]-4,6-diazaspiro[2.4]hept-4-en-7-one]	2.45 µM	88%	1.17 µM	> 10 µM
Cc1cc(-c2cccc(S(C)(=O)=O)c2)ccc1C1=NC2(CC2)C(=O)N1C[C@@H]1CCN(C(=O)C2CC2)C1 [compound 633, 6-{[(3R)-1-(Cyclopropylcarbonyl)pyrrolidin-3-yl]methyl}-5-[3-methyl-3′-(methylsulfonyl)biphenyl-4-yl]-4,6-diazaspiro[2.4]hept-4-en-7-one]	5.25 µM	56%	8.32 µM	> 10 µM
O=C(C1CC1)N1CC(CN2C(=O)C3(CC3)N=C2c2ccc(-c3ccc4nn(CC5CC5)cc4c3)cc2F)C1 [compound 524, 6-{[1-(Cyclopropylcarbonyl)azetidin-3-yl]methyl}-5-{4-[2-(cyclopropylmethyl)-2H-indazol-5-yl]-2-fluorophenyl}-4,6-diazaspiro[2.4]hept-4-en-7-one]	4.9 µM	73%	2.09 µM	> 10 µM
Cc1cc(Cl)nc2cc(-c3ccc(C4=NC5(CC5)C(=O)N4CC4CN(C(=O)C5CC5)C4)cc3)ccc12 [compound 559, 5-[4-(2-Chloro-4-methylquinolin-7-yl)phenyl]-6-{[1-(cyclopropylcarbonyl)azetidin-3-yl]methyl}-4,6-diazaspiro[2.4]hept-4-en-7-one]	9.33 µM	59%	6.03 µM	> 10 µM
N#Cc1ccc2ccc(-c3ccc(C4=NC5(CC5)C(=O)N4CC4CN(C(=O)C5CC5)C4)cc3)cc2n1 [compound 611, 7-[4-(6-{[1-(Cyclopropylcarbonyl)azetidin-3-yl]methyl}-7-oxo-4,6-diazaspiro[2.4]hept-4-en-5-yl)phenyl]quinolin-2-carbonitrile]	> 10 µM	46%	~10 µM	> 10 µM
O=C(O)c1ccc2ccc(-c3ccc(C4=NC5(CC5)C(=O)N4CC4CN(C(=O)C5CC5)C4)cc3)cc2n1 [compound 583, 7-[4-(6-{[1-(Cyclopropylcarbonyl)azetidin-3-yl]methyl}-7-oxo-4,6-diazaspiro[2.4]hept-4-en-5-yl)phenyl]quinoline-2-carboxylic acid]	2.57 µM	74%	3.98 µM	> 10 µM
O=C(C1CC1)N1CC(CN2C(=O)C3(CC3)N=C2c2ccc(-c3cc4ccccc4nc3O)cc2)C1 [compound 532, 6-{[1-(Cyclopropylcarbonyl)azetidin-3-yl]methyl}-5-[4-(2-hydroxyquinolin-3-yl)phenyl]-4,6-diazaspiro[2.4]hept-4-en-7-one]	> 10 µM	58%	5.37 µM	> 10 µM
COC(=O)N1CC2(C1)N=C(c1ccc(-c3ccc4c(cnn4C)c3)cc1)N(C[C@@H]1CCN(C(=O)c3nccs3)C1)C2=O [compound 923, (R)-methyl 6-(4-(1-methyl-1H-indazol-5-yl)phenyl)-8-oxo-7-((1-(thiazole-2-carbonyl)pyrrolidin-3-yl)methyl)-2,5,7-triazaspiro[3.4]oct-5-ene-2-carboxylate]	> 10 µM	27%	> 10 µM	> 10 µM
Cc1ccc2c(-c3ccc(C4=NC5(CC5)C(=O)N4CC4CN(C(=O)C5CC5)C4)c(F)c3)cccc2n1 [compound 575, 6-{[1-(Cyclopropylcarbonyl)azetidin-3-yl]methyl}-5-[2-fluoro-4-(2-methylquinolin-5-yl)phenyl]-4,6-diazaspiro[2.4]hept-4-en-7-one]	~7.94 µM	52%	8.13 µM	> 10 µM
Cc1cc(-c2cccc(S(=O)(=O)C(C)C)c2)ccc1C1=NC2(CC2)C(=O)N1CC1CN(C(=O)C2CC2)C1 [compound 776, 6-((1-(cyclopropanecarbonyl)azetidin-3-yl)methyl)-5-(3′-(isopropylsulfonyl)-3-methyl-[1,1′-biphenyl]-4-yl)-4,6-diazaspiro[2.4]hept-4-en-7-one]	> 10 µM	25%	> 10 µM	> 10 µM
O=C(C1CC1)N1CC(CN2C(=O)C3(CC3)N=C2c2ccc(-c3ccc4c(cnn4CCO)c3)cc2)C1 [compound 556, 6-{[1-(Cyclopropylcarbonyl)azetidin-3-yl]methyl}-5-{4-[1-(2-hydroxyethyl)-1H-indazol-5-yl]phenyl}-4,6-diazaspiro[2.4]hept-4-en-7-one]	5.89 µM	61%	5.25 µM	> 10 µM
